# From publication PMC6829050 (European journal of medicinal chemistry, 2019)
# Biological target: T1, ChTS (Cryptosporidium parvum, UniProt Q27552)
# T1 sequence (Q27552 1-521): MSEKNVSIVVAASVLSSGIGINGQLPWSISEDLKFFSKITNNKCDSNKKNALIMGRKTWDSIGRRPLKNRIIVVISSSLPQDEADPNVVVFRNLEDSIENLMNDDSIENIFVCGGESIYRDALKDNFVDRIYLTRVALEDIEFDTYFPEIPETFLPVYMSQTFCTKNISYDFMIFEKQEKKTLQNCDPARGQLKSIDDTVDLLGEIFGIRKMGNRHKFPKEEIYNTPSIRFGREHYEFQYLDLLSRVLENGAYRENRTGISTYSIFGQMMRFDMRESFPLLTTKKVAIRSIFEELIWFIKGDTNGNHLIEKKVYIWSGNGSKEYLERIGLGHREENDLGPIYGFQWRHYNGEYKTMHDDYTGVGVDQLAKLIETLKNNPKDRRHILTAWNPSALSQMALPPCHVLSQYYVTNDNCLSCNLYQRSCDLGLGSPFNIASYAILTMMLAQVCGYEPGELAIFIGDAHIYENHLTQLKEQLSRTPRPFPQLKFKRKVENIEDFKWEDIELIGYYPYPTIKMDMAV
# Type: biochemical
# Conditions: ChTS IC50 compared to compound 2
Compound,loss (decrease) of potency,increase (enhancement) in potency
"Nc1nc2[nH]cc(Cc3ccc(C(=O)Nc4cccc(C(=O)O)c4)cc3)c2c(=O)[nH]1 [Compound 3, 3-(4-((2-amino-4-oxo-4,7-dihydro-3H-pyrrolo[2,3-d]pyrimidin-5-yl)methyl)benzamido)benzoic acid]",~ 5 fold,
"Nc1nc2[nH]cc(Cc3ccc(C(=O)Nc4ccc(C(=O)O)cc4)cc3)c2c(=O)[nH]1 [Compound 4, 4-(4-((2-amino-4-oxo-4,7-dihydro-3H-pyrrolo[2,3-d]pyrimidin-5-yl)methyl)benzamido)benzoic acid]",~ 5 fold,
"Nc1nc2[nH]cc(Cc3ccc(C(=O)Nc4ccccc4CCC(=O)O)cc3)c2c(=O)[nH]1 [Compound 6, 3-(2-(4-((2-amino-4-oxo-4,7-dihydro-3H-pyrrolo[2,3-d]pyrimidin-5-yl)methyl)benzamido)phenyl) propanoic acid]",~ 6 fold,
"CN(C(=O)c1ccc(Cc2c[nH]c3nc(N)[nH]c(=O)c23)cc1)c1ccccc1C(=O)O [Compound 9, 2-(4-((2-amino-4-oxo-4,7-dihydro-3H-pyrrolo[2,3-d]pyrimidin-5-yl)methyl)-N-methylbenzamido) benzoic acid]",~ 11 fold,
"Nc1nc2[nH]cc(Cc3ccc(/C=C/c4ccccc4C(=O)O)cc3)c2c(=O)[nH]1 [Compound 10, (E)-2-(4-((2-amino-4-oxo-4,7-dihydro-3H-pyrrolo[2,3-d]pyrimidin-5-yl)methyl)styryl)benzoic acid]",greater than 5 fold,
"Nc1nc2[nH]cc(Cc3ccc(C(=O)NCc4ccccc4C(=O)O)cc3)c2c(=O)[nH]1 [Compound 11, 2-((4-((2-amino-4-oxo-4,7-dihydro-3H-pyrrolo[2,3-d]pyrimidin-5-yl)methyl)benzamido)methyl) benzoic acid]",6 fold,
"Nc1nc2[nH]cc(Cc3ccc(C(=O)N4CCCCC4C(=O)O)cc3)c2c(=O)[nH]1 (stereo not shown) [Compound 12, 1-(4-((2-amino-4-oxo-4,7-dihydro-3H-pyrrolo[2,3-d]pyrimidin-5-yl)methyl)benzoyl) piperidine-2-carboxylic acid]",greater than 25 fold,
"Nc1nc2[nH]cc(Cc3ccc(C(=O)NC4CCCCC4C(=O)O)cc3)c2c(=O)[nH]1 (stereo not shown) [Compound 13, 2-(4-((2-amino-4-oxo-4,7-dihydro-3H-pyrrolo[2,3-d]pyrimidin-5-yl)methyl)benzamido)cyclohexan-1-carboxylic acid]",3 fold,
"COc1ccc(C(=O)O)c(NC(=O)c2ccc(Cc3c[nH]c4nc(N)[nH]c(=O)c34)cc2)c1 [Compound 16, 2-(4-((2-amino-4-oxo-4,7-dihydro-3H-pyrrolo[2,3-d]pyrimidin-5-yl)methyl)benzamido)-4-methoxy benzoic acid]",~ 2.5 fold,
"N#Cc1ccc(C(=O)O)c(NC(=O)c2ccc(Cc3c[nH]c4nc(N)[nH]c(=O)c34)cc2)c1 [Compound 17, 2-(4-((2-amino-4-oxo-4,7-dihydro-3H-pyrrolo[2,3-d]pyrimidin-5-yl)methyl)benzamido)-4-cyanobenzoic acid]",,2 fold
"Nc1nc2[nH]cc(Cc3ccc(C(=O)Nc4cc(CO)ccc4C(=O)O)cc3)c2c(=O)[nH]1 [Compound 18, 2-(4-((2-amino-4-oxo-4,7-dihydro-3H-pyrrolo[2,3-d]pyrimidin-5-yl)methyl)benzamido)-4-(hydroxymethyl)benzoic acid]",~ 9 fold,
"COCc1ccc(C(=O)O)c(NC(=O)c2ccc(Cc3c[nH]c4nc(N)[nH]c(=O)c34)cc2)c1 [Compound 19, 2-(4-((2-amino-4-oxo-4,7-dihydro-3H-pyrrolo[2,3-d]pyrimidin-5-yl)methyl)benzamido)-4-(methoxymethyl)benzoic acid]",~ 3.5 fold,
"COCc1cccc(C(=O)O)c1NC(=O)c1ccc(Cc2c[nH]c3nc(N)[nH]c(=O)c23)cc1 [Compound 21, 2-(4-((2-amino-4-oxo-4,7-dihydro-3H-pyrrolo[2,3-d]pyrimidin-5-yl)methyl)benzamido)-3-(methoxymethyl)benzoic acid]",greater than 5 fold,
"COc1ccc(NC(=O)c2ccc(Cc3c[nH]c4nc(N)[nH]c(=O)c34)cc2)c(C(=O)O)c1 [Compound 22, 2-(4-((2-amino-4-oxo-4,7-dihydro-3H-pyrrolo[2,3-d]pyrimidin-5-yl)methyl)benzamido)-5-methoxybenzoic acid]",greater than 5 fold,
"COCCOc1cc(OC)cc(-c2ccc(Cc3c[nH]c4nc(N)[nH]c(=O)c34)cc2)c1 [Compound 26, 2-amino-5-((3’-methoxy-5’-(2-methoxyethoxy)-[1,1’-biphenyl]-4-yl)methyl)-3,7-dihydro-4H-pyrrolo [2,3-d]pyrimidin-4-one]",~ 5 fold,
"COc1cc(C(=O)O)cc(-c2ccc(Cc3c[nH]c4nc(N)[nH]c(=O)c34)cc2)c1 [Compound 27, 4’-((2-amino-4-oxo-4,7-dihydro-3H-pyrrolo[2,3-d]pyrimidin-5-yl)methyl)-5-methoxy-[1,1’-biphenyl]-3-carboxylic acid]",greater than 25 fold,

# Same assay, conditions: compared to compound 2
row,Compound,change in ChTS potency (in words)
1,"Nc1nc2[nH]cc(Cc3ccc(C(=O)Nc4ccccc4CC(=O)O)cc3)c2c(=O)[nH]1 [Compound 5, 2-(2-(4-((2-amino-4-oxo-4,7-dihydro-3H-pyrrolo[2,3-d]pyrimidin-5-yl)methyl)benzamido)phenyl) acetic acid]",small increase in potency
2,"Nc1nc2[nH]cc(Cc3ccc(C(=O)Nc4cc(Cl)ccc4C(=O)O)cc3)c2c(=O)[nH]1 [Compound 14, 2-(4-((2-amino-4-oxo-4,7-dihydro-3H-pyrrolo[2,3-d]pyrimidin-5-yl)methyl)benzamido)-4-chloro benzoic acid]",small loss of potency

# Tested on: ChTS over the hTS enzyme
# Conditions: inhibition activity; cited from earlier work
row,Compound,selectivity for the ChTS over the hTS enzyme
1,"2-amino-4-oxo-4,7-dihydro-pyrrolo[2,3-d]pyrimidin-methyl-phenyl-L-glutamic acid [Compound 1]",6 fold
